Assays:
[1] = test system: marrow cell-derived macrophages; experiment: Cytotoxicity test, CellTiter 96 Non-Radioactive Cell Proliferation Assay, marrow cell-derived macrophages; assay type: cell-based; details: Mus musculus, Macrophage
Procedure: For preparation of mouse macrophages, the mouse femur was severed and then both ends thereof were cut. A 1-ml syringe was filled with the RPMI-1640 medium (Gibco), which was then used to isolate and take marrow cells in the femur. Blood cells were removed from the taken marrow cells by a low-osmotic buffer, and then the number of marrow cells was measured using a microscope. After appropriate dilution with the RPMI-1640 medium, the marrow cells were seeded in a 96-well microplate at 100,000 cells per well. After culturing in a CO2 incubator at 37° C. for 2 hours, cells other than the marrow cells were removed through exchange with a new RPMI-1640 medium. The medium was substituted with a culture supernatant of L929 cells, followed by culturing for 3 days. Again, the medium was substituted with a new culture supernatant of L929 cells, followed by culturing for 3 days.
Cytotoxicity was measured according to the method of Promega Inc., and 15 μl of a staining solution was applied to each well of the 96-well plate. The cells were incubated in a CO2 incubator at 37° C. for 4 hours, and then 100 μl of a quiescent solution was applied thereto. The absorbance of each well was measured at 570 nm using an absorbance measurement equipment from Molecular Devices. The absorbance values of wells not containing the compounds of Chemical Formulas 1 to 4 were compared with those of wells containing the compounds of Chemical Formulas 1 to 4 to determine the inhibition (%). The correlation between inhibition and concentration was calculated using the Prism software from Graphpad to determine IC50 (concentration at 50% inhibition) value. The marrow cell-derived macrophages were prepared by the method as described in Example 3 above.

[2] = test system: carbon monoxide dehydrogenase (CO-DH); experiment: CO-DH activity assay (INT reduction in the presence of CO, enzyme extract); assay type: biochemical; details: 12.5 μM compound; relative to control group set to 100%
Procedure: In order to obtain an enzyme extract to be used for the measurement of CO-DH activity, the bacteria cultured according to respective experiment conditions were collected by centrifugation at 18,000×g for 10 minutes at 4° C. (Eppendorf centrifuge-5403, Hamburg, Germany), washed twice with a 50 mM Tris-HCl (pH 7.5) buffer solution, and re-suspended in […] of a 50 mM Tris-HCl (pH 7.5) buffer solution. The suspended bacteria were homogenized at 0° C. by repeating 20 times of ultrasonication using an ultrasonic processor (Sonics & Materials Inc., Danbury, Conn.) wherein the ultrasonication was conducted such that ultrasonic wave at 20% amplitude was applied for 3 seconds and paused for 10 seconds. The homogenized culture solution was collected by centrifugation at 18,000×g for 30 minutes at 4° C. (Eppendorf centrifuge-5403), and a supernatant was used as an enzyme extract.
Proteins were quantified using bovine serum albumin (BSA) as a standard protein according to the method of Bradford (1976).
CO-DH activity was determined by measuring the reduction rate of 2-(4-indophenyl)-3-(4-nitrophenyl)-2H-tetrazolium chloride (INT, Sigma, ε496=17.981 mM^−1 cm^−1) in the presence of CO. Here, 1-methoxyphenazine methosulfate (MPMS, Sigma) was used as an electron transfer mediator between CO-DH and INT. A mixture solution of 19.2 ml of 50 mM Tris-HCl (pH 7.5), 250 μl of INT (9.8 mM), 50 μl of MPMS (8.9 mM), and 500 μl of Triton X-100 (25%, v/v) was saturated with CO gas. 800 μl of the resultant solution was added into a plastic cuvette, and then each compound was added thereto to a final concentration of 12.5 μM. Last, 800 μl of the enzyme extract was added thereto, followed by reaction at 30° C. for 200 seconds. Here, the absorbance change is due to red formazan generated resulting from INT reduction, and was measured at 496 nm by using a spectrophotometer (U-2000, Hitachi) equipped with a temperature adjuster. Enzyme specific activity was expressed as nmoles of reduced INT per mg of protein per minute (nmol/mg protein/min). The enzyme specific activity of each compound treatment group was expressed as a percentage of the control group of which enzyme specific activity was set to 100%, and the results were summarized in Table 1.

[3] = test system: Mycobacterium sp. strain JC1 wild type; experiment: CFU inhibition of JC1 wild type by compound alone; assay type: cell-based; details: read-out: Compound analog + JC 1 wild type (percentage (%) of CFU inhibition)
[4] = test system: Vero cell line (ATCC CCL-81); experiment: Cytotoxicity test, CellTiter 96 Non-Radioactive Cell Proliferation Assay, Vero cell line; assay type: cell-based; details: Chlorocebus sabaeus, 72 h, 3 days

COC(=O)c1ccc(Cl)cc1NC(=O)CCSc1ccccn1 [Compound 4]
IC50 [1]: > 100 µM
Inhibition of CO-DH activity [2]: 7%
inhibition at 12.5 µM [3]: 2%
inhibition at 25 µM [3]: 4%
inhibition at 50 µM [3]: 16%
IC50 [4]: 158 µM

COC(=O)c1ccccc1NC(=O)CSc1ccccn1 [Compound 3]
IC50 [1]: > 100 µM
Inhibition of CO-DH activity [2]: 15%
inhibition at 12.5 µM [3]: 4%
inhibition at 25 µM [3]: 2%
inhibition at 50 µM [3]: 8%
IC50 [4]: 109 µM

COC(=O)c1ccsc1NC(=O)CSc1ccncc1 [Compound 1]
IC50 [1]: > 100 µM
Inhibition of CO-DH activity [2]: 48%
inhibition at 12.5 µM [3]: 0%
inhibition at 25 µM [3]: 2%
inhibition at 50 µM [3]: 6%
IC50 [4]: 75.2 µM

COC(=O)c1ccccc1NC(=O)CSc1ccc(Br)cc1 [Compound 2]
IC50 [1]: > 100 µM
Inhibition of CO-DH activity [2]: 18%
inhibition at 12.5 µM [3]: 3%
inhibition at 25 µM [3]: 9%
inhibition at 50 µM [3]: 12%
IC50 [4]: 36.4 µM
